Counter-ions that a name gives are not always drawn.
Assays:
[1] = tested on: A375 cells; experiment: Assay 2: A375 (BRAF) GI50 cell-based assay (Cell Titer-Glo); conditions: Homo sapiens, A-375, 72 hours
Method: (§1) Alternatively, the following procedure can be used to measure cell-based activity. Test compounds were dissolved in DMSO in 10 mM stock. Cell Titer-Glo® 2.0 Luminescent cell viability assay reagent was purchased from Promega (Madison, WI). A375 and HCT116 cell lines were purchased from American Type Culture Collection (Manassas, VA). For A375 cells, cell culture media was DMEM+10% FBS. For HCT116 cells, cell culture media was McCoy's 5A+10% FBS. All media were supplemented with 100 μg/mL of penicillin, and 100 μg/mL of streptomycin. Cultures were maintained at 37° C. in a humidified atmosphere of 5% CO2 and 95% air.
(§2) Test compounds were diluted in DMSO solution with 10-dose and 3-fold dilutions in a source plate starting at 10 mM. 25 nL of each test compound was delivered from the source plate to each well of the 384-well cell culture plates (T=Final) by Echo 550. 25 μL of culture medium containing 2000 of A375 or HCT116 cells was added to each of the wells in duplicates of the cell culture plates (T=0 and T=Final). 25 μL of Cell Titer Glo 2.0 reagent was added to each well of cell culture plate (T=0). The contents were mixed on an orbital shaker for 2 min and incubated at room temperature for 15 min to stabilize luminescent signal. Luminescence was recorded by Envision 2104 Multilabel Reader (PerkinElmer, Santa Clara, CA). The number of viable cells in culture was determined based on quantitation of the ATP present in each culture well. The cells in cell culture plate (T=Final) were incubated with the compounds at 37° C., 5% CO2 for 72 hours. 25 μL of Cell Titer Glo 2.0 reagent was added to each well. The contents were mixed on an orbital shaker for 2 min and incubated at room temperature for 15 min to stabilize luminescent signal. Luminescence was recorded by Envision 2104 Multilabel Reader (PerkinElmer, Santa Clara, CA). The number of viable cells in culture was determined based on quantitation of the ATP present in each culture well. The GI50 curves were plotted using the GraphPad Prism 4 program based on a sigmoidal dose-response equation Y=Bottom+(Top-Bottom)/(1+10^((Log EC50−X)*HillSlope)). All parameters in the equation were calculated by GraphPad Prism 4 program. […] Accordingly, GI50 is the value of 10^X, where X was calculated by the Curve Fitting Equation when Y=50 using Excel.
Assay 2 is the A375 (BRAF) GI50 (nM) cell-based assay as described in Example 39. A2 indicates an IC50 of less than or equal to 1 μM, and B2 indicates an IC50 of greater than 1 μM and less than or equal to 2 μM.

[2] = tested on: HCT116 cells; experiment: Assay 3: HCT116 (Kras) GI50 assay (Cell Titer-Glo); format: cell-based; conditions: Homo sapiens, HCT-116, 72 hours
Method: as §1, §2
Assay 3 is the HCT116 (Kras) GI50 (nM) assay as described in Example 39. A3 indicates an IC50 of less than or equal to 5 μM, and B3 indicates an IC50 of greater than 5 μM and less than or equal to 10 μM.

[3] = Assay 4: liver S9 half-life stability assay; format: in vitro ADME; conditions: liver S9 fraction, pH 7.4; human liver S9, 1 μM test compound, NADPH
Method: (§3) Compounds can be assessed for metabolic stability in human skin by assessing their rate of disappearance from human S9 skin fraction. Similarly, compounds can be assessed for metabolic stability in human liver by assessing their rate of disappearance from human S9 liver fraction. The protocol below is used to assess the difference between skin and hepatic metabolism.
(§4) The assay was carried out in 96-well microtiter plates at 37° C. Reaction mixtures (25 μL) contained a final concentration of 1 μM test compound, 2 mg/mL liver or skin protein, and 1 mM NADPH in buffer (100 mM potassium phosphate, pH 7.4 buffer with 1 mM EDTA, 3 mM MgCl2). At each of the time points (0, 15, 30, and 60 minutes), 150 μL, of quench solution (100% acetonitrile with 0.1% formic acid) with internal standard was transferred to each well. […]
(§5) All samples were analyzed on LC/MS/MS using an AB Sciex API 4000 instrument, coupled to a Shimadzu LC-20AD LC Pump system. […]
(§6) The extent of metabolism was calculated as the disappearance of the test compound, compared to the 0-min control reaction incubations. Initial rates were calculated for the compound concentration and used to determine tin values and subsequently, the intrinsic clearance, CLint=(0.693)(1/t1/2 (min)) (mL incubation/mg of S9 protein). […]

[4] = Assay 5: skin S9 half-life stability assay; format: in vitro ADME; conditions: skin S9 fraction, pH 7.4; human skin S9, 1 μM test compound, NADPH
Method: as §3, §4, §5, §6

[5] = Assay 6: liver microsomes half-life stability assay; format: in vitro ADME; conditions: pH 7.4; human liver microsomes, 1 μM test compound, NADPH
Method: Metabolic stability of testing compound can be evaluated using human liver microsomes to predict intrinsic clearance. Human liver microsomes are obtained from Corning Gentest.
The assay was carried out in 96-well microtiter plates at 37° C. Reaction mixtures (25 μL) contain a final concentration of 1 μM test compound, 0.5 mg/mL liver microsomes protein, and 1 mM NADPH in buffer (100 mM potassium phosphate, pH 7.4 buffer with 3 mM MgCl2). At each of the time points (0, 15, 30, and 60 minutes), 150 μL of quench solution (100% acetonitrile with 0.1% formic acid) with internal standard was transferred to each well. Verapamil was included as a positive control to verify assay performance. Plates were sealed and centrifuged at 4° C. for 15 minutes at 4000 rpm. The supernatant was transferred to fresh plates for LC/MS/MS analysis.
as §5
as §6, with “time incubation.” for “control reaction incubations.”, “t1/2” for “tin”, “(min))(g of liver/kg of body weight)(mL” for “(min)) (mL”, “microsomal protein)(45 mg of microsomal protein/g of liver weight).” for “S9 protein).”

[6] = target: MEK1 (Homo sapiens (Human), UniProt Q02750); experiment: MEK Inhibition Assay-2 (Z'-LYTE biochemical assay); conditions: Z'-LYTE assay of Example 37; read-out: IC50 against MEK1
Method: MEK1 inhibitory activity of compounds were tested using the following procedure (protocol available at thermofisher.com/content/dam/LifeTech/migration/files/drug-discovery/pdfs.par.60256.file.dat/20130430%20ssbk %20customer %20protocol %20 and %20assa y %20conditions.pdf). The Z′-LYTE biochemical assay (ThermoFisher) employs a fluorescence-based, coupled-enzyme format and is based on the differential sensitivity of phosphorylated and non-phosphorylated peptides to proteolytic cleavage.
Test compounds in 100% DMSO were screened in 1% DMSO (final) in the well. For 10 point titrations, 3-fold serial dilutions are conducted from the starting concentration of 30 μM.
After the 1 hour incubation, 5 μL of a 1:1024 dilution of Development Reagent A (available from Invitrogen, catalog no. PV3295) was added.
ATP solutions were diluted to a 4× working concentration in Kinase Buffer (50 mM HEPES pH 7.5, 0.01% BRIJ-35, 10 mM MgCl2, 1 mM EGTA). ATP Km apparent was previously determined using a Z′-LYTE assay. The Development Reagent was diluted in Development Buffer (available from Invitrogen, catalog no. P3127).
Assay Protocol: 2.5 μL of 4× test compound or 100 nL of 100× Test Compound plus 2.4 μL Kinase Buffer, 5 μL of the 2× Peptide/Kinase Mixture, 2.5 μL of 4×ATP Solution were added to the plates and placed on a shake plate for 30-seconds. The kinase reaction was allowed to proceed for 60-minute at room temperature, before 5 μL of Development Reagent Solution was added, and the mixture agitated for 30-seconds on a shake plate. The mixture was incubated for 60-minute at room temperature. Fluorescence was measured using a plate reader and the data were analyzed.
This control yielded 100% cleaved peptide in the Development Reaction. The 100% Phosphorylation Control, which consisted of a synthetically phosphorylated peptide of the same sequence as the peptide substrate, was designed to allow for the calculation of percent phosphorylation. This control yielded a very low percentage of cleaved peptide in the Development Reaction. The 0% Phosphorylation and 100% Phosphorylation Controls allow for the calculation of the percent phosphorylation achieved in a specific reaction well.
The minimum emission ratio in a screen was established by the 0% Inhibition Control, which contained active kinase. This control was designed to produce a 10-50% phosphorylated peptide in the Kinase Reaction. Cascade assays may produce up to 70% phosphorylated peptide.
A known inhibitor control standard curve, 10 point titration, was run for each individual kinase on the same plate as the kinase to ensure the kinase was inhibited within an expected IC50 range previously determined.
The following controls are prepared for each concentration of Test Compound assayed. […] The expected value for a non-interfering compound should be 100%. Any value outside of 90% to 110% was flagged. […] The expected value for a non-fluorescence compound should be 0%. Any value>20% was flagged.
The data in Table A was calculated. XLfit from IDBS was used. The dose response curve was curve fit to model number 205 (sigmoidal dose-response model).
Table 3 lists the MEK1 inhibition assay results of selected compounds according to the above procedure.

Sequence of MEK1 (Q02750 whole entry): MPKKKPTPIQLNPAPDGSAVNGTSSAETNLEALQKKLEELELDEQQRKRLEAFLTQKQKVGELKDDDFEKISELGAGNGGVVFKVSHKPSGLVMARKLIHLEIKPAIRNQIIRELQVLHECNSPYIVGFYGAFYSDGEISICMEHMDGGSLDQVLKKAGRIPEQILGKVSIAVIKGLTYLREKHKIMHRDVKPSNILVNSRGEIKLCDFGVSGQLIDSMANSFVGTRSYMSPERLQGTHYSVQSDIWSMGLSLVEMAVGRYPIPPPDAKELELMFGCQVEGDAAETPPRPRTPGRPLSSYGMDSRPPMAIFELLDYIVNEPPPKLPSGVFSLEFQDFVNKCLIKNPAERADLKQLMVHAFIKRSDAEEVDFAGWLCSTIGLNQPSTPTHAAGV

Compound	GI50 [1]	GI50 [2]	IC50 [6]	further results
CC(=O)c1sc(Nc2ccc(I)cc2F)c(C(=O)NOCCO)c1C [Compound 1.013, 5-Acetyl-2-((2-fluoro-4-iodophenyl)amino)-N-(2-hydroxyethoxy)-4-methylthiophene-3-carboxamide]	≤ 1000 nM	≤ 5000 nM		half-life at 1 μM [3]: ≤ 50 min; half-life at 1 μM [4]: ≥ 400 min; half-life at 1 μM [5]: ≤ 50 min
CC(=O)c1sc(Nc2ccc(I)cc2F)c(C(=O)N[C@@H]2CCCNC2)c1C [Compound 1.016, (R)-5-acetyl-2-((2-fluoro-4-iodophenyl)amino)-4-methyl-N-(piperidin-3-yl)thiophene-3-carboxamide]	1000 to 2000 nM	≤ 5000 nM		
CC(=O)c1sc(Nc2ccc(I)cc2F)c(C(=O)N[C@@H]2CCNC2)c1C [Compound 1.017, (R)-5-acetyl-2-((2-fluoro-4-iodophenyl)amino)-4-methyl-N-(pyrrolidin-3-yl)thiophene-3-carboxamide]	1000 to 2000 nM	≤ 5000 nM		
CC(=O)c1sc(Nc2ccc(I)cc2F)c(C(=O)NCC(C)(C)N)c1C [Compound 1.020]	≤ 1000 nM	5000 to 10000 nM		
CC(=O)c1sc(Nc2ccc(I)cc2F)c(C(=O)NOCC2CC2)c1C [Compound 1.023]	≤ 1000 nM	5000 to 10000 nM		
O=C1CCCc2c1sc(Nc1ccc(I)cc1F)c2C(=O)NOC[C@H](O)CO [Compound 1.030, (R)—N-(2,3-Dihydroxypropoxy)-2-((2-fluoro-4-iodophenyl)amino)-7-oxo-4,5,6,7-tetrahydrobenzo[b]thiophene-3-carboxamide]			≤ 150 nM	
O=C1CCCc2c1sc(Nc1ccc(I)cc1F)c2C(=O)NOCC1CC1 [Compound 1.032, N-(Cyclopropylmethoxy)-2-((2-fluoro-4-iodophenyl)amino)-7-oxo-4,5,6,7-tetrahydrobenzo[b]thiophene-3-carboxamide]	≤ 1000 nM	≤ 5000 nM	≤ 150 nM	
NCCONC(=O)c1c(Nc2ccc(I)cc2F)sc2c1CCCC2=O [Compound 1.033, N-(2-Aminoethoxy)-2-(2-fluoro-4-iodophenylamino)-7-oxo-4,5,6,7-tetrahydrobenzo[b]thiophene-3-carboxamide hydrochloride]			≤ 150 nM	
O=C1CCCc2c1sc(Nc1ccc(I)cc1F)c2C(=O)NC[C@H](O)CO [Compound 1.034, (S)—N-(2,3-dihydroxypropyl)-2-((2-fluoro-4-iodophenyl)amino)-7-oxo-4,5,6,7-tetrahydrobenzo[b]thiophene-3-carboxamide]			≤ 150 nM	
O=C1CCCc2c1sc(Nc1ccc(I)cc1F)c2C(=O)NC[C@@H](O)CO [Compound 1.035, (R)—N-(2,3-dihydroxypropyl)-2-((2-fluoro-4-iodophenyl)amino)-7-oxo-4,5,6,7-tetrahydrobenzo[b]thiophene-3-carboxamide]			≤ 150 nM	

From US12466818B2, “Thienyl-aniline compounds for treatment of dermal disorders” (NFlection Therapeutics, Inc., priority 2018, dated 2025)
